Laboratory results from paper PMC8196835, “Antibacterial Properties of Small-Size Peptide Derived from Penetratin against Oral Streptococci” (Materials, 2021).
Values after ≈ are worked out from the molar mass of the structure shown. Residues, ends and D or L forms follow the SMILES beside them.

Assays:
[1] = tested on: mammalian cells; details: cited from earlier work
Excerpt: Antibiotics are used excessively and inappropriately in clinic. As a result, it directly leads to the weakening of the effect of antibiotics and the emergence of drug-resistant pathogens. Among new biomedical alternatives, antimicrobial peptides (AMPs) and cell-penetrating peptides (CPPs) are considered promising candidates. CPPs are a new carrier that can pass through the cell membrane without cell surface receptor recognition and can deliver therapeutic drugs to the cell membrane. One of the most well-known examples of CPPs is penetratin (RQIKIWFQNRRMKWK ...

[2] = tested on: tested bacteria; details: cited from earlier work
Excerpt: To overcome the drawbacks of using cationic peptides as a new generation of antibiotics, researchers began to synthesize new short peptides by reducing the residue of the peptide chain for use as candidate drugs in clinical trials. […] Therefore, we aimed to figure out the antibacterial activity of RR9 on initial oral colonizers, specifically S. oralis, S. gordonii, and S. sanguinis ... || Antibiotics are used excessively and inappropriately in clinic. As a result, it directly leads to the weakening of the effect of antibiotics and the emergence of drug-resistant pathogens. Among new biomedical alternatives, antimicrobial peptides (AMPs) and cell-penetrating peptides (CPPs) are considered promising candidates. CPPs are a new carrier that can pass through the cell membrane without cell surface receptor recognition and can deliver therapeutic drugs to the cell membrane. One of the most well-known examples of CPPs is penetratin (RQIKIWFQNRRMKWK ...

[3] = tested on: S. gordonii (ATCC No 10558); format: cell-based, Streptococci gordonii; details: ATCC No 10558, 24 h
Description: (§1) The bacterial strains S. oralis (ATCC No 9811), S. sanguinis (ATCC No 10556), and S. gordonii (ATCC No 10558) were purchased from the ATCC (American Type Culture Collection, Manassas, VA, USA). The cultivation method was the same as that described in a previous article.
(§2) The bacterial growth inhibiting ability of the peptide was determined using a broth microdilution-based method with modifications. […] The start inoculum was 5 × 10^7 CFU mL^−1, and the MIC was denoted as the lowest concentration of peptides where bacterial growth was stopped. After bacteria were treated with RR9 for 24 h, 20 uL was removed from each sample and spread on a brain heart infusion (BHI) agar plate. The CFU on plates were counted after incubation at 37 °C for 5 days. The MBC is the concentration of RR9 where over 99.9% of the cells were inhibited.

[4] = tested on: human gingival fibroblasts (HGFs); format: cell-based; details: RR9 25 μg mL^−1, 1–4 days, CCK-8 OD 450 and AO/EB CLSM
Description: HGFs were purchased from Procell Life Science & Technology (Wuhan, China). Cells from passages 4 to 6 were used. The cultivation method was described previously.
The HGFs (2 × 10^3 cells per well) were cultured in DMEM supplemented with 10% FBS in a humidified incubator (37 °C, 5% CO2 atmosphere) for 24 h. Pretreatment of the cells was conducted by incubating with 25 μg mL^−1 RR9 for 1, 2, 3, and 4 days. Untreated cells were used as a negative control. The samples were characterized using the Cell Counting Kit-8 (Dojindo Laboratories, Kumamoto, Japan) by measuring their absorbance at 450 nm using a microplate reader (BioTek Synergy HT, Vermont, USA). After staining using AO/EB live/dead dye, the viability of seeded cells on the sterile coverslips was determined using CLSM. Each sample consisted of five wells.

[5] = tested on: planktonic oral streptococci (S. oralis, S. sanguinis, S. gordonii); experiment: Time-kill assay; format: cell-based
Description: To evaluate the effect of RR9 on planktonic oral streptococci, the time-killing assay was used. First, 200 μL of RR9 solution and 800 μL of BHI broth were mixed with 1 mL of bacterial culture (5 × 10^7 CFU mL^−1), yielding 2 mL of the final volume with 100%, 200%, or 400% of the MBC final peptide concentrations. After 0, 0.25, 0.5, 1, 2, 4, 24, and 48 h of incubation at 37 °C, 10 μL of each suspension was pipetted, serially diluted 10 times, and finally transferred to a BHI agar plate for CFU determination. The time–kill kinetic curves were obtained by recording log(CFU mL^−1) as a function of incubation time […].

[6] = tested on: sspA gene of S. gordonii; experiment: RT-PCR of sspA gene expression; format: cell-based; details: RR9 25 μg mL^−1 (MIC), 24 h, p < 0.05
Description: Trizol reagent was employed to extract the total RNA of S. gordonii cells, following the manufacturer’s instructions. The first strand of cDNA was synthesized by the retrotranscription of 2 μL of RNA (Invitrogen, TRIzol Max Bacterial RNA Isolation Kit). The cDNA was amplified to a final volume of 20 μL by 45 cycles in a DNA thermal circulatory apparatus. Pre-denaturation was carried out at 95 °C for 15 s, and the reaction was performed at 95 °C for 10 s, 60 °C for 20 s, and 72 °C for 30 s. The primer sequences of the differentiation markers are shown in Table A1 in Appendix B. After amplification, GAPDH was defined as the internal reference gene, and the sample of the control group was set as the standard to obtain the CT value of each target gene for each sample. The data were analyzed using the relative quantification of ΔCT. The relative quantitative (RQ) values of all target genes were obtained according to the formula RQ = 2^−ΔΔCT.

[7] = tested on: streptococci biofilm (S. oralis, S. gordonii, S. sanguinis); experiment: Biofilm susceptibility, crystal violet; format: cell-based; details: RR9 25 μg mL^−1 (MIC), 24 h, n = 3, p < 0.05
Description: The antibacterial agents were evaluated by the microdilution method to study their impact on biofilm formation. In our study, streptococci (5 × 10^7 CFU mL^−1) mixed with RR9 were cultured for 24 h. The formed biofilm was fixed using methanol (95%) and stained using 0.5% (w/v) crystal violet, and the final OD at 600 nm was measured.

[8] = tested on: S. oralis (ATCC No 9811); format: cell-based, Streptococci oralis; details: ATCC No 9811, 24 h
Description: as §1, §2

[9] = tested on: S. sanguinis (ATCC No 10556); format: cell-based, Streptococci sanguinis; details: ATCC No 10556, 24 h
Description: as §1, §2

[10] = tested on: streptococci biofilms and cell membranes; experiment: SEM and TEM observation of bacterial morphology; format: cell-based, S. oralis, S. gordonii, S. sanguinis; details: RR9 25 μg mL^−1, 24 h (SEM), 12 h (TEM)
Excerpt: The morphology of the formed biofilm was observed using scanning electron microscopy (SEM, SUPRA 55VP, Germany) following previously published procedures. Additionally, the transmission electron microscopy (TEM, JEM-2100F; JEOL Ltd., Tokyo, Japan)-based technique was employed for the structural analysis of RR9 cells according to the previously reported method. For more details, please check Appendix A.
A sterile coverslip was placed in a 24-well plate and was as described above. The coverslips with biofilms were fixed with 2.5% (v/v) glutaraldehyde, and the samples were dehydrated with increasing concentrations of ethanol for 15 min each. Prior to field-emission SEM, the samples were subjected to gold sputtering.
After incubation with RR9 (25 μg mL^−1) or without the peptide (control group) for 12 h at 37 °C in an anaerobic chamber (N2: 80%; H2: 10%; CO2: 10%), super-thin slice samples were prepared for TEM using a previously reported method. The cells were fixed with 2.5% glutaraldehyde at 4 °C for 4 h and, then, dyed with 2% uranyl acetate and 0.2% citrate before being observed under electron.

[11] = tested on: streptococci biofilm (S. oralis, S. gordonii, S. sanguinis); format: cell-based; details: RR9 25 μg mL^−1, 24 h at 37 °C, preformed 24 h biofilm, AO/EB
Description: Each bacteria suspension (300 μL) was mixed with BHI broth (900 μL) and then cultured for 24 h in a 24-well microtiter plate for biofilm formation. After the removal of the medium and unattached bacterial cells, RR9 (25 μg mL^−1) with saliva or serum was added, and the resulting samples were cultured for another 24 h at 37 °C. After the staining of the attached bacteria using an acridine orange/ethidium bromide (AO/EB) solution (Solarbio, Beijing, China), CLSM (Leica SP8, Oskar-Barnack-Strae Germany) was used to count the number of observed bacterial cells. For each biofilm strain, three representative areas per lens were scanned in at least three separate experiments. The images were captured using MetaMorph software (Universal Imaging, West Chester, PA, USA).

Molecule: RQIKIWFQNRRMKWKK-NH2 [penetratin, well-known cell-penetrating peptide, …-NH2]
- cytotoxicity toward mammalian cells [1]: without any cytotoxicity
- bactericidal effect on the tested bacteria [2]: strong bactericidal effect

Molecule: CC[C@H](C)[C@H](NC(=O)[C@H](CCC(N)=O)NC(=O)[C@@H](N)CCCNC(=N)N)C(=O)N[C@@H](CCCNC(=N)N)C(=O)N[C@@H](CCCNC(=N)N)C(=O)N[C@@H](Cc1c[nH]c2ccccc12)C(=O)N[C@@H](Cc1c[nH]c2ccccc12)C(=O)N[C@@H](CCC(N)=O)C(=O)N[C@@H](CCCNC(=N)N)C(N)=O [RR9, Arg-Gln-Ile-Arg-Arg-Trp-Trp-Gln-Arg-NH2] (H-RQIRRWWQR-NH2; N-terminus assumed)
- MBC [3]: 50 µg/mL (≈ 36.1 µM)
- MIC [3]: 25 µg/mL (≈ 18.1 µM)
- cytotoxicity toward HGFs [4]: negligible cytotoxicity
- time to complete bacterial death ([5]; 100%, 200% or 400% of the MBC, 37 °C, all tested strains): 24 to 48 h
- duration of the antimicrobial effect ([5]; time-kill over 48 h): 44 h
- expression of the sspA gene versus control [6]: significantly reduced
- biofilm formation, OD at 600 nm versus control [7]: reduced OD value
- MBC [8]: 62.5 µg/mL (≈ 45.2 µM)
- MIC [8]: 25 µg/mL (≈ 18.1 µM)
- MBC [9]: 62.5 µg/mL (≈ 45.2 µM)
- MIC [9]: 25 µg/mL (≈ 18.1 µM)
- bacterial morphology and membrane integrity (SEM, TEM) [10]: the bacteria swelled, and some cell membranes were damaged
- anti-biofilm effect of RR9 with saliva or serum compared with RR9 alone (CLSM live/dead) [11]: No significant difference
- antimicrobial effect against selected bacteria [2]: strong antimicrobial effect
